Measurements taken from article PMC10145360, “Antiplatelet Aggregation Properties of Cirsilineol: A Novel Inhibitor of Blood Coagulation Factor Xa” (Pharmaceuticals, 2023).
Where “and” joins values, the source holds several entries; their conditions need not be identical. Equal entries are not always repeated.

Experiments:
HUVECs = experiment: MTT cell viability assay; assay type: cell-based, human; settings: CSL 5–50 μM
Experimental: First, the potential cytotoxicity of […] on HUVECs was assessed using the 3-(4,5-dimethylthiazol-2-yl)-2,5-diphenyltetrazolium bromide (MTT) assay. […] The activated partial thromboplastin time (aPTT) and prothrombin time (PT), two coagulation parameters altered by CSL in vitro, were assessed first. We used the direct FXa inhibitor rivaroxaban as a positive control for our experiments. […] In the aPTT experiments, rivaroxaban at 8.38 μM and CSL at 7.23 μM, respectively, doubled the clotting time. Each mouse group (n = 5) received intravenous injections of CSL for 4 consecutive days to validate the in vitro results in an ex vivo experiment. […] In the ex vivo aPTT assays, treatment with CSL at 0.25 mg/kg and rivaroxaban at 0.29 mg/kg, respectively, doubled the clotting time. The average blood volume was determined to be 2 mL based on an estimated circulating blood volume for mice of 72 mL/kg and an average weight of 27 g for each animal used in this investigation. As a result, the estimated concentration of CSL in the peripheral blood after each injection ([…]) was 2.5, 5, 10, or 20 μM, respectively.
A 3-(4,5-dimethylthiazol-2-yl)-2,5-diphenyltetrazoliumbromide (MTT) assay was used to measure cell viability. […] The amount of formazan salt formed was measured spectrophotometrically at 540 nm.

Factor Xa = biological target: T1, Factor Xa (Homo sapiens, UniProt P00742); experiment: FXa amidolytic activity and inhibitory constant (chromogenic substrate); assay type: biochemical
T1 construct: Factor Xa; purchased Haematologic Technologies (Essex Junction, VT, USA)
Experimental: CSL was dissolved in 50 mM Tris buffer, which has a pH of 7.4, and was added to 150 μL of FXa solution (1 U/mL). This mixture was incubated for 1 min at 37 °C. Additionally, 150 μL of S-2222 solution (1.5 mM) was blended, and for 20 min, the changes in absorbance were observed spectrophotometrically at 405 nm. We used the slope of the curve (Vi) and the absorbance–time curve to determine enzyme activity. Equation (1) was used to compute the CSL inhibitory rates:Inhibitory rate (%) = (V0 − Vi)/V0 × 100(1) where Vi and V0 represent the slopes of the samples and the vehicle, respectively.
Ki values were calculated based on chromogenic substrate experiments. CSL was employed in each assay at a minimum of seven concentrations in duplicate to obtain an inhibition curve. A total of 50 μL of substrate was combined with 25 μL of each chemical solution, inhibitor solution, or blank buffer. Before the plate was allocated into the Labsystems IEMS microtiter plate reader (Cergy Pontoise, France), 25 μL of the enzyme solution was mixed. The plate was allowed for 1 h at 37 °C before analysis. We continuously observed the formation of p-nitroaniline produced when the substrate was hydrolyzed using spectrophotometry at 405 nm. The maximum initial reaction rates were computed as the millioptical density per minute. A Dixon plot of 1/Vmax versus inhibitor concentration was used to fit the curve and determine the Ki values.

[1] = system: FX activation by FVIIa on HUVECs; experiment: Production of FXa on the surface of TNF-α-stimulated HUVECs; assay type: cell-based, human; settings: pre-incubation 10 min
Experimental: Figure 5 Effects of CSL on the catalytic activity and production of FXa. […] Plots show the average values of five independent measurements. (B) HUVECs pre-incubated with the indicated concentrations of CSL for 10 min were stimulated with TNF-α (10 ng/mL) for 6 h and incubated with FX (175 nM) and FVIIa (10 nM) with/without anti-tissue factor antibody (25 µg/mL). The production of FXa was characterized as described in the Methods section. (C) PRP was preincubated for 5 min with different concentrations of CSL, Riva, or the vehicle. Platelet aggregation was initiated with FXa (52 µg/mL), and the platelet aggregation was recorded using an aggregometer. Data are shown as mean values ± SD of five independent experiments. * p < 0.05 vs. TNF-α alone (B) or FXa (C). D = 0.2% DMSO, used as the vehicle control.
Confluent HUVEC monolayers developed on 96-well culture plates that were stimulated with TNF-α (10 ng/mL) for 6 h after exposure to the relevant CSL concentration for 10 min. […] The reaction was stopped by adding buffer A supplemented with 10 mM EDTA, and the amount of FXa produced was determined by adding S-2765. Spectrophotometric monitoring of the absorbance over a 2 min period was performed at 405 nm. […]

[2] = system: human platelet-rich plasma (PRP); experiment: In vitro agonist-induced platelet aggregation (aggregometer); assay type: cell-based
Experimental: Figure 3 Effects of CSL on agonist-induced platelet aggregation. Platelet-rich plasma (PRP) was preincubated for 5 min with different concentrations of CSL, Riva, or the vehicle. […] Data are shown as mean values ± SD of five independent experiments. * p < 0.05 vs. D. D = 0.2% DMSO, used as the vehicle control.
Ten fasting healthy volunteers (aged 24–28; six women and four men) who were free of allergies, cardiovascular problems, carbohydrate, or lipid metabolic abnormalities and had not taken any morning medication had their blood samples taken. None of our subjects used addictive drugs or antioxidant food supplements, and their diets were well balanced. The plasma from the blood samples was immediately spun down (1300× g for 15 min) to separate it from sodium citrate (10.9 mM) and pooled for the following investigations. Next, human blood samples were spun down at room temperature to rapidly separate the PRP. The PRP concentration was adjusted to 1 × 10^9 platelets/mL using a hemocytometer. After being rinsed once in HEPES buffer containing 1 mM CaCl2, the PRP pellet was maintained at room temperature for an additional 30 min. Then, 10 mL of the platelet samples were utilized to measure each clotting time point. The IRB of Kyungpook National University Hospital (Daegu, Republic of Korea) approved this study protocol (KNUH 2012-01-010).
CSL dissolved in DMSO was incubated with human PRP for a specified time (1, 3, 5, or 10 min). […]

T1 sequence (P00742 235-488 limits assumed): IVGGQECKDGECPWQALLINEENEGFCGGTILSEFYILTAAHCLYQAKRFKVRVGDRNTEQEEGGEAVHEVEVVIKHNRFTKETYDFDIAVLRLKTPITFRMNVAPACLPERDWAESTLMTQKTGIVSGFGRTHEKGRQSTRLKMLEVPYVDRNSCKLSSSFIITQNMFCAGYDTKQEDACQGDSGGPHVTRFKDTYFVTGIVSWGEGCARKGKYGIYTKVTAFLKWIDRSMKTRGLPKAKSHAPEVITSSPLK
T1 sequence (P00742 41-179 partner limits assumed): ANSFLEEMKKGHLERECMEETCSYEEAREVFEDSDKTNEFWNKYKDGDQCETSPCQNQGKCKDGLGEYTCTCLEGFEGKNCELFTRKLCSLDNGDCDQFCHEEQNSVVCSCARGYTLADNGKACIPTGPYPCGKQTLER

COc1cc(-c2cc(=O)c3c(O)c(OC)c(OC)cc3o2)ccc1O [CSL, 4,5-dihydroxy-3,6,7-trimethoxyflavone]
cell viability (MTT) (HUVECs): no change in cell viability | Km value of FXa on S-2222 (Factor Xa): increase | Vmax of FXa on S-2222 (Factor Xa): decrease | selectivity ratio (based on Ki values) for FXa compared to other enzymes examined (Factor Xa): > 300 | slope of Michaelis–Menten plot (Factor Xa; CSL 10 μM, FXa on S-2222): 0.568 | slope of Michaelis–Menten plot (Factor Xa; CSL 20 μM, FXa on S-2222): 0.759 | inhibitory pattern (Lineweaver–Burk plot) (Factor Xa; FXa on S-2222): mixed-type inhibitory pattern | Ratio = Ki enzyme/Ki Factor Xa (Factor Xa; Factor Xa): 1 | Ki (Factor Xa; Factor Xa, chromogenic substrate S-2222, Dixon plot): 3.71 µM and 3.7 µM | FX activation by FVIIa [1]: inhibited FX activation in a concentration-dependent manner | platelet aggregation induced by ADP ([2]; ADP 10 μM): significantly suppressed | platelet aggregation induced by U46619 ([2]; U46619 6 μM): significantly suppressed | platelet aggregation induced by collagen ([2]; collagen 1 μg/mL): significantly suppressed
